The values that follow are results of earlier work, collected in US20220362237A1, “PS[…] TREATMENT OF PAIN” (Mind Medicine, Inc., priority 2021, published 2022).

The conditions of data set [1]: grave and terminally ill patients, acute treatment (one or two doses); pain returned after several days.
For data set [2] the following is noted: 20-microgram dose.
The subject of data set [3] is serotonin 5-HT1 receptors.
In a further data set the target is 5-HT transporter (SERT) (Homo sapiens, UniProt P31645).
Sequence of 5-HT transporter (SERT) (P31645 whole entry, species assumed): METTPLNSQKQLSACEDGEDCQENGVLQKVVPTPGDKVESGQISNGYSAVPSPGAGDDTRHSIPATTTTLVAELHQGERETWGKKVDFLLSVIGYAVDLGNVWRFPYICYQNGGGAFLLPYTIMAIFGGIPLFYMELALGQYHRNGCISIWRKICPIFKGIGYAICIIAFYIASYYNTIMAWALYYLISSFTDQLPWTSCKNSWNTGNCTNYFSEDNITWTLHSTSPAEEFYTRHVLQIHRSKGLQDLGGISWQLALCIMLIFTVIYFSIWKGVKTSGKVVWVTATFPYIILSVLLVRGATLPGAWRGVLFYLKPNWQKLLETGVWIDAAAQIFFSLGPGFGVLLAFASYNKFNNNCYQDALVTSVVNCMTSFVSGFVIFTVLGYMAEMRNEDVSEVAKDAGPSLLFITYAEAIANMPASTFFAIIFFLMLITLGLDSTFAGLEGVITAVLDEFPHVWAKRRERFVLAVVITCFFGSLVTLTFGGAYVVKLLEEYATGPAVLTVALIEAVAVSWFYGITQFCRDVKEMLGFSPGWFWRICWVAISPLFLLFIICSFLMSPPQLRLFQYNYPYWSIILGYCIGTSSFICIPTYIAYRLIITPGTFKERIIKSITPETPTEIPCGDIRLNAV
For another data set, the target named is 5-HT2A receptor (Homo sapiens, UniProt P28223).
Sequence of 5-HT2A receptor (P28223 whole entry): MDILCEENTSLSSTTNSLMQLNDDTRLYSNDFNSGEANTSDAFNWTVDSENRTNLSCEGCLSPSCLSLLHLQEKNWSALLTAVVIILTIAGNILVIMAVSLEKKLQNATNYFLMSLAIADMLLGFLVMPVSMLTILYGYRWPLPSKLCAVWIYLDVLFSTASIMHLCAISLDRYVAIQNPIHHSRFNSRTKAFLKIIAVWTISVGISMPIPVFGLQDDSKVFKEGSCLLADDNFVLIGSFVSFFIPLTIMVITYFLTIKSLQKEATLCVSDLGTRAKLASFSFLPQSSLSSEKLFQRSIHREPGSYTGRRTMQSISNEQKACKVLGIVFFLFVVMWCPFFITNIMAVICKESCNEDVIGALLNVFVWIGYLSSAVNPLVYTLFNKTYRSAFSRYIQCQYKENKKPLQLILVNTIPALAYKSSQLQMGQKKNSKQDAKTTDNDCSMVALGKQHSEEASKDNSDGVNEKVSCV
The subject of another data set is 5HT2A receptors. The conditions noted are these: tumor necrosis factor-alpha-induced inflammation.
The next data set deals with D2 receptors (Homo sapiens, UniProt P14416).
Sequence of D2 receptors (P14416 whole entry): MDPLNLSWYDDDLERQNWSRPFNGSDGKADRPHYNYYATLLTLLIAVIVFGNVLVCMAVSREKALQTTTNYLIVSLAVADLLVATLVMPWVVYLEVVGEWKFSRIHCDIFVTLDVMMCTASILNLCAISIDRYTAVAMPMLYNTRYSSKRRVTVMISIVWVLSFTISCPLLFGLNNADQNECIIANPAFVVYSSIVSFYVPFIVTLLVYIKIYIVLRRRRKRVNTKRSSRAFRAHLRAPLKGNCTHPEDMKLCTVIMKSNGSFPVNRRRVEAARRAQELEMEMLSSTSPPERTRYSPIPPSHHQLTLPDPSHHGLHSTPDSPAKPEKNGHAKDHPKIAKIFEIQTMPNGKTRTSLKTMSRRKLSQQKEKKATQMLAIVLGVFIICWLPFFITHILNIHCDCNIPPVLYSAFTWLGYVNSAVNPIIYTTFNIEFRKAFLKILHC

Take `CCN(CC)C(=O)[C@@H]1C=C2c3cccc4[nH]cc(c34)C[C@H]2N(C)C1` [LSD, lysergic acid diethylamide]: the “pain relief compared with the narcotics meperidine and dihydromorphinone” value in data set [1] is “greater and longer lasting pain relief”. Besides, in [2], the “subjective levels of experienced pain and unpleasantness” value was “decreased”; the “time that participants could tolerate cold water exposure” value is reported as “significantly increased”. Further, the “stimulation of 5-HT2B/C receptors” value with 5-HT2B/C is on record as “stimulates”. Moreover, the “agonist potency at serotonin 5-HT1 receptors” value (shortened to “agonist potency”) in data set [3] is “potent agonists”. The “stimulation of D1-3 receptors” value in the data set on D1-3 receptors was “stimulates”. Further, on 5-HT transporter (SERT), the “interaction with / inhibition of the 5-HT transporter (SERT)” value is “does not interact”. In addition, the “stimulation of the 5-HT2A receptor” value on 5-HT2A receptor was “potently stimulates”.
For `COc1cc(CC(C)N)c(OC)cc1I` (stereo not shown) [R-DOI, 2,5-dimethoxy-4-iodoamphetamine], in the data set on 5HT2A receptors, the anti-inflammatory effect result is listed as “potent anti-inflammatory effect”.
In the case of `COc1cc(CCN)cc(OC)c1OC` [mescaline], the “agonist potency” value in data set [3] is given as “low potency”. In addition, the “affinity for D2 receptors” value at D2 receptors is “no affinity”.
For the molecule `CN(C)CCc1c[nH]c2cccc(O)c12` [psilocin], the “agonist potency” value in [3] is on record as “potent agonists”. The “interaction with / inhibition of the 5-HT transporter (SERT)” value at 5-HT transporter (SERT) is “inhibits”.
